Data published in the supplement of paper PMC10307832.

Key:
Experiment in all cases: relative viability (nuclei count vs DMSO), 5 days (fraction); higher = more cells survive
[1] = compound: CC1=CN=C(N=C1C2=CNC(=C2)C(=O)N[C@H](CO)C3=CC(=CC=C3)Cl)NC4=C(C=C(C=C4)F)Cl [VX-11e] + COc1cc2c(Oc3ccc(NC(=O)C4(C(=O)Nc5ccc(F)cc5)CC4)cc3F)ccnc2cc1OCCCN1CCOCC1 [Foretinib] (partner 0.25 µM)
How it was run: (§1)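 Relative viability is defined as nuclei in treated wells over nuclei in vehicle wells. Duplicate plates were run and medians reported. Lung cancer cell lines in 1536-well plates were dosed by pin tool one day after seeding, with one drug or with a fixed anchor-drug dose plus five library-drug doses (not always all listed) in √10 steps, and nuclei were counted after 5 days.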

[2] = compound: CC1=CN=C(N=C1C2=CNC(=C2)C(=O)N[C@H](CO)C3=CC(=CC=C3)Cl)NC4=C(C=C(C=C4)F)Cl [VX-11e] + NC(=O)Nc1cc(-c2cccc(F)c2)sc1C(=O)N[C@H]1CCCNC1 [AZD7762] (partner 0.2 µM)
How it was run: as §1

[3] = compound: CC1=CN=C(N=C1C2=CNC(=C2)C(=O)N[C@H](CO)C3=CC(=CC=C3)Cl)NC4=C(C=C(C=C4)F)Cl [VX-11e] + O=C(CCCCCCC(=O)Nc1ccccc1)NO [Vorinostat] (partner 1 µM)
How it was run: as §1

[4] = compound: CC1=CN=C(N=C1C2=CNC(=C2)C(=O)N[C@H](CO)C3=CC(=CC=C3)Cl)NC4=C(C=C(C=C4)F)Cl [VX-11e] + CS(=O)(=O)N1CCN(Cc2cc3nc(-c4cccc5[nH]ncc45)nc(N4CCOCC4)c3s2)CC1 [Pictilisib] (partner 1 µM)
How it was run: as §1

| Cell Line | relative viability ([1]; first compound 0.04 µM) | relative viability ([1]; first compound 0.1265 µM) | relative viability ([1]; first compound 0.4 µM) | relative viability ([1]; first compound 1.265 µM) | relative viability ([1]; first compound 4 µM) | relative viability ([2]; first compound 0.04 µM) | relative viability ([2]; first compound 0.1265 µM) | relative viability ([2]; first compound 0.4 µM) | relative viability ([2]; first compound 1.265 µM) | relative viability ([2]; first compound 4 µM) | relative viability ([3]; first compound 0.04 µM) | relative viability ([3]; first compound 0.1265 µM) | relative viability ([3]; first compound 0.4 µM) | relative viability ([3]; first compound 1.265 µM) | relative viability ([3]; first compound 4 µM) | relative viability ([4]; first compound 0.04 µM) | relative viability ([4]; first compound 0.1265 µM) | relative viability ([4]; first compound 0.4 µM) | relative viability ([4]; first compound 1.265 µM) | relative viability ([4]; first compound 4 µM) |
| --- | --- | --- | --- | --- | --- | --- | --- | --- | --- | --- | --- | --- | --- | --- | --- | --- | --- | --- | --- | --- |
| NCI-H838 | 1.03 | 1.11 | 1.05 | 1.1 | 0.779 | 0.784 | 0.962 | 0.728 | 0.977 | 0.834 | 0.774 | 0.669 | 0.681 | 0.639 | 0.591 | 0.333 | 0.435 | 0.266 | 0.424 | 0.292 |
| 201T | 1.12 | 0.959 | – | – | 1.03 | 0.592 | 0.586 | 0.562 | 0.626 | 0.74 | 0.975 | 0.988 | 0.885 | 0.65 | 0.855 | 0.599 | 0.658 | 0.608 | 0.542 | 0.647 |
| NCI-H650 | 1.09 | 1.04 | 1.1 | 0.993 | 1.1 | 1.08 | 0.935 | 0.964 | 0.994 | 0.553 | 0.33 | 0.435 | 0.63 | 0.608 | 0.533 | – | 0.927 | 1.23 | – | 0.819 |
| NCI-H1355 | 0.93 | 0.94 | 0.933 | 0.883 | 0.543 | 0.757 | 0.695 | 0.45 | 0.615 | 0.368 | 0.472 | 0.617 | 0.591 | 0.52 | 0.345 | 0.263 | 0.194 | 0.166 | 0.3 | 0.232 |
| NCI-H1395 | 1.05 | 0.898 | 0.931 | 1 | 0.666 | 0.377 | 0.394 | – | 0.385 | 0.365 | 0.573 | 0.683 | – | 0.661 | 0.479 | 0.682 | 0.551 | 0.501 | 0.59 | 0.435 |
| NCI-H358 | 0.354 | 0.541 | 0.347 | 0.434 | 0.147 | 0.594 | 0.499 | – | 0.445 | 0.228 | 0.725 | 0.63 | 0.513 | 0.54 | 0.135 | 0.3 | 0.313 | – | 0.372 | 0.254 |
| HCC-827 | 1.07 | 1.09 | 1.04 | 1.13 | 0.739 | 0.162 | 0.222 | 0.212 | 0.349 | 0.21 | 0.924 | 0.846 | 1.03 | 0.918 | 0.761 | 1.03 | 0.883 | 1.06 | 1.19 | 0.813 |
| NCI-H441 | 1.14 | 1.2 | – | 1.05 | 0.937 | 1.23 | 1.12 | – | 1.17 | 1.05 | 0.835 | 0.786 | – | 0.753 | 0.569 | 0.349 | 0.518 | – | 0.371 | 0.24 |
| NCI-H2126 | 1.21 | 1.22 | 1.01 | 1.1 | 0.903 | 0.844 | 0.972 | 0.795 | 1.01 | 0.861 | 0.512 | 0.686 | 0.352 | 0.474 | 0.52 | – | 0.518 | 0.393 | 0.384 | 0.392 |
| EPLC-272H | 0.622 | 0.559 | – | 0.361 | 0.261 | 0.147 | 0.21 | – | 0.201 | 0.285 | 0.311 | 0.381 | 0.477 | 0.23 | 0.275 | 0.301 | 0.299 | 0.266 | 0.213 | 0.233 |
| NCI-H1651 | 0.89 | 0.724 | 0.781 | 0.745 | 0.667 | 0.331 | 0.399 | 0.464 | 0.47 | 0.377 | 0.526 | 0.557 | 0.55 | 0.517 | 0.569 | 0.494 | 0.519 | 0.504 | 0.548 | 0.536 |
| NCI-H727 | 0.76 | 0.775 | 0.846 | 0.55 | 0.302 | 0.519 | 0.616 | 0.652 | 0.476 | 0.385 | 0.997 | 1.08 | 1.28 | 1.12 | 0.787 | 0.243 | 0.451 | 0.314 | 0.238 | 0.173 |
| LOU-NH91 | 0.92 | 0.896 | 0.577 | 0.94 | 0.782 | 0.746 | 0.805 | – | 0.8 | 0.725 | 0.889 | 0.79 | – | 0.626 | 0.781 | 0.474 | 0.54 | – | 0.501 | 0.504 |
| HARA | 0.857 | 0.856 | 0.841 | 0.734 | 0.343 | 0.575 | 0.391 | 0.258 | 0.281 | 0.306 | 0.618 | 0.455 | 0.535 | 0.392 | 0.257 | 0.0961 | 0.425 | 0.322 | 0.341 | 0.188 |
| CAL-12T | 1.1 | 1.03 | 1.07 | 1.07 | 0.561 | 0.639 | 0.641 | 0.575 | 0.533 | 0.544 | 0.634 | 0.724 | 0.649 | 0.84 | 0.285 | – | – | 0.393 | 0.524 | 0.295 |
| LCLC-103H | 0.867 | 0.694 | 0.858 | 0.656 | 0.67 | 0.766 | 0.71 | 0.801 | 0.606 | 0.654 | 0.807 | 0.68 | 0.673 | 0.46 | 0.66 | 0.516 | 0.509 | 0.582 | 0.442 | 0.439 |
| NCI-H1793 | 0.589 | 0.603 | – | 0.748 | 0.411 | – | 0.361 | – | 0.516 | 0.191 | – | 0.618 | – | 0.569 | 0.257 | – | 0.329 | – | 0.273 | 0.232 |
